Values joined by “and” are separate entries in the source; they are usually repeats but may differ in a detail not shown here. Identical values can stand only once.
Tests used:
ML-2 = experiment: Cell-cycle analysis; format: cell-based, human; settings: ML-2, treatment for 48 hours; replicates 1-3 (Figure 2F)
Procedure: […] Next, the cells were washed twice with PBS and resuspended in 0.2% Tween 20 in PBS and 0.5 mg/mL Rnase A (Ribonuclease A Type III-A from bovine pancreas, Cat No. R5125, Sigma), and then incubated for 30 min at 37 °C. Subsequently, the cells were stained with 25 μg/mL of propidium iodide (Cat No P4170, Sigma) and analyzed using a BD FACSCanto flow cytometer (Becton Dickinson, San Jose, CA, USA).

BRDT (BD1) = biological target: T1, BRDT (BD1) (Homo sapiens, UniProt Q58F21); experiment: Epigenetic panel (BPS Bioscience); format: binding
T1 construct: purchased BPS Bioscience; Eurofins (HDAC4, 5, 7-11)
Excerpt: (§1) The selectivity of CM-444 and CM-1758 against other epigenetic targets, including histone demethylase (JMJD2A, JMJD2B, JMJD2C, JMJD2D, JMJD2E, JMJD3, JMJD1A, LSD1, Jarid1A, Jarid1B, Jarid1C, FBXL10, FBXL11, JHDM1D, JMJD1B, PHF8, LSD2 and UTX); histone acetyltransferases (GCN5, P300); histone methyltransferases (G9a, GLP, MLL1, SET7/9, SUV39H1, SUV39H2, PRMT1, PRMT3, PRMT4, PRMT5, PRMT6, PRMT8, PRMT9, NSD1, NSD2, EZH1, EZH2, SETDB1, SETD2, SET8, SUV4-20H1, SMYD2, SMYD3, DOT1L, EZH2 (A677G), EZH2 (A677G), EZH2 (A738T), EZH2 (Y641S), EZH2 (P132S), EZH2 (Y641C), EZH2 (Y641F), EZH2 (Y641H), EZH2 (Y641N)); bromodomains (ATAD2B, ATAD2A, BRD1, BRD9, BPTF/FALZ, CeCR2, BRPF3, BRD3 (BD1 + BD2), BAZ2B, WDR9, TAF1 (BD2), TAF1L (BD2), TAF1L (BD1 + BD2), BRD2 (BD1), BRD2 (BD2), BRD2 (BD1 + BD2), BRD3 (BD1), BRD3 (BD2), BRD4 (BD1), BRD4 (BD2), BRD4 (BD1 + BD2), BRDT (BD1), BRDT (BD1 + BD2), CREBBP, SMARCA2A, SMARCA4/BRG1); DNA methyltranferases (DNMT1, DNMT3A/3L and DNMT3B/3L), and sirtuin histone deacetylases (SIRT1, SIRT2, SIRT3, SIRT5 and SIRT6), were determined by BPS Bioscience (http://www.bpsbioscience.com/index.ph). Binding experiments were performed in duplicate at a concentration of 10 μM.

ATAD2B = biological target: T2, ATAD2B (Homo sapiens, UniProt Q9ULI0); experiment: Epigenetic panel (BPS Bioscience); format: binding
T2 construct: purchased BPS Bioscience; Eurofins (HDAC4, 5, 7-11)
Excerpt: as §1

TAF1L (BD2) = biological target: T3, TAF1L (BD2) (Homo sapiens, UniProt Q8IZX4); experiment: Epigenetic panel (BPS Bioscience); format: binding
T3 construct: purchased BPS Bioscience; Eurofins (HDAC4, 5, 7-11)
Excerpt: as §1

TAF1L (BD1+BD2) = biological target: T4, TAF1L (BD1+BD2) (Homo sapiens, UniProt Q8IZX4); experiment: Epigenetic panel (BPS Bioscience); format: binding
T4 construct: purchased BPS Bioscience; Eurofins (HDAC4, 5, 7-11)
Excerpt: as §1

BRDT (BD1+BD2) = biological target: T5, BRDT (BD1+BD2) (Homo sapiens, UniProt Q58F21); experiment: Epigenetic panel (BPS Bioscience); format: binding
T5 construct: purchased BPS Bioscience; Eurofins (HDAC4, 5, 7-11)
Excerpt: as §1

BRD4 (BD2) = biological target: T6, BRD4 (BD2) (Homo sapiens, UniProt O60885); experiment: Epigenetic panel (BPS Bioscience); format: binding
T6 construct: purchased BPS Bioscience; Eurofins (HDAC4, 5, 7-11)
Excerpt: as §1

SMARCA2A = biological target: T7, SMARCA2A (Homo sapiens, UniProt P51531); experiment: Epigenetic panel (BPS Bioscience); format: binding
T7 construct: purchased BPS Bioscience; Eurofins (HDAC4, 5, 7-11)
Excerpt: as §1

BRD3 (BD2) = biological target: T8, BRD3 (BD2) (Homo sapiens, UniProt Q15059); experiment: Epigenetic panel (BPS Bioscience); format: binding
T8 construct: purchased BPS Bioscience; Eurofins (HDAC4, 5, 7-11)
T8 sequence (Q15059 306-419 limits assumed): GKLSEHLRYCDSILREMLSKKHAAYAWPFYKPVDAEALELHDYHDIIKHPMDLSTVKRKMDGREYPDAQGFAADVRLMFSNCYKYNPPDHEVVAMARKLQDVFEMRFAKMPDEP
Excerpt: as §1

BRD2 (BD1) = biological target: T9, BRD2 (BD1) (Homo sapiens, UniProt P25440); experiment: Epigenetic panel (BPS Bioscience); format: binding
T9 construct: BRD2 (BD1); purchased BPS Bioscience (contracted assay service)
T9 sequence (P25440 74-180 limits assumed): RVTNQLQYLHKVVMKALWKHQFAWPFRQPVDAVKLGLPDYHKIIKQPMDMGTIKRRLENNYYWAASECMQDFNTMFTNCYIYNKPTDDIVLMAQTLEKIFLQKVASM
Excerpt: as §1

BRD3 (BD1) = biological target: T10, BRD3 (BD1) (Homo sapiens, UniProt Q15059); experiment: Epigenetic panel (BPS Bioscience); format: binding
T10 construct: BRD3 (BD1); purchased BPS Bioscience (contracted assay service)
T10 sequence (Q15059 34-140 limits assumed): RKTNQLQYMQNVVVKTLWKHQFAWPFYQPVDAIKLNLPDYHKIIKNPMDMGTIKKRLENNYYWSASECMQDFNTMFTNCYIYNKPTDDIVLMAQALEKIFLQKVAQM
Excerpt: as §1

BPTF/FALZ = biological target: T11, BPTF/FALZ (Homo sapiens, UniProt Q12830); experiment: Epigenetic panel (BPS Bioscience); format: binding
T11 construct: purchased BPS Bioscience; Eurofins (HDAC4, 5, 7-11)
Excerpt: as §1

TAF1 (BD2) = biological target: T12, TAF1 (BD2) (Homo sapiens, UniProt P21675); experiment: Epigenetic panel (BPS Bioscience); format: binding
T12 construct: purchased BPS Bioscience; Eurofins (HDAC4, 5, 7-11)
T12 sequence (P21675 1522-1656 limits assumed): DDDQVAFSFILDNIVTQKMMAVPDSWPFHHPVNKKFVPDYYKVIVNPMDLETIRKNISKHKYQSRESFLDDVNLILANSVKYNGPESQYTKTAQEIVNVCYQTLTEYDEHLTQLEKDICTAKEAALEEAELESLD
Excerpt: as §1

BRPF3 = biological target: T13, BRPF3 (Homo sapiens, UniProt Q9ULD4); experiment: Epigenetic panel (BPS Bioscience); format: binding
T13 construct: purchased BPS Bioscience; Eurofins (HDAC4, 5, 7-11)
T13 sequence (Q9ULD4 whole entry): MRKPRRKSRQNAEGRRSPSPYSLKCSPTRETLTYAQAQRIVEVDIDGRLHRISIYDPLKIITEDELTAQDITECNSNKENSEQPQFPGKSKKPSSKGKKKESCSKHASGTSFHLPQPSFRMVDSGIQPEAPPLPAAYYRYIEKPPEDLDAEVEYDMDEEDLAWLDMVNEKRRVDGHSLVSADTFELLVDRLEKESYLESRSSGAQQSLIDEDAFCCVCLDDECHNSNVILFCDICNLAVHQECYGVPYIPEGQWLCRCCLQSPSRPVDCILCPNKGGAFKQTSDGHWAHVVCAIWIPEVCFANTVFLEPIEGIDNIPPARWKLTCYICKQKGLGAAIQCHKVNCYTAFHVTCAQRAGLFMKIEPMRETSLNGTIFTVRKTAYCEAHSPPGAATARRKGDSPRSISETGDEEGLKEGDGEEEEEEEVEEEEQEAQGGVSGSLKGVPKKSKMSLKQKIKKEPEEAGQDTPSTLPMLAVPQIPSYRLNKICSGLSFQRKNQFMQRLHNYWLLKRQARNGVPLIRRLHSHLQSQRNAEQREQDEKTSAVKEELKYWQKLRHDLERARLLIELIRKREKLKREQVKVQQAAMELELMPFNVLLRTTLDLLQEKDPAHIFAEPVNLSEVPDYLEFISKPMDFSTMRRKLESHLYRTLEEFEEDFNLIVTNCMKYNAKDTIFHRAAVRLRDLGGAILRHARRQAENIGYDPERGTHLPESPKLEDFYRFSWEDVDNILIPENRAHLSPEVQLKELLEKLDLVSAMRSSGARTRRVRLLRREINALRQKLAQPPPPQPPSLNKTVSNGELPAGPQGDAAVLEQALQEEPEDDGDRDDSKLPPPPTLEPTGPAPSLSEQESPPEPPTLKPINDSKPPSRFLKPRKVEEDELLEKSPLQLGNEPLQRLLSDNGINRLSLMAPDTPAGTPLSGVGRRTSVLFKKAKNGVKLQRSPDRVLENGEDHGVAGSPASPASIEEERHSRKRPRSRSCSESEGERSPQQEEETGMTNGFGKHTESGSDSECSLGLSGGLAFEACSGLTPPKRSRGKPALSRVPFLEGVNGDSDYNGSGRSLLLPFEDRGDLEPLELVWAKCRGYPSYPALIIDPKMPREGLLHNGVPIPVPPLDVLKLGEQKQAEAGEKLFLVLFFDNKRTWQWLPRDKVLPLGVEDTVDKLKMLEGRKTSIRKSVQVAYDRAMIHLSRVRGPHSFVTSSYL
Excerpt: as §1

BRD4 (BD1) = biological target: T14, BRD4 (BD1) (Homo sapiens, UniProt O60885); experiment: Epigenetic panel (BPS Bioscience); format: binding
T14 construct: purchased BPS Bioscience; Eurofins (HDAC4, 5, 7-11)
Excerpt: as §1

BAZ2B = biological target: T15, BAZ2B (Homo sapiens, UniProt Q9UIF8); experiment: Epigenetic panel (BPS Bioscience); format: binding
T15 construct: purchased BPS Bioscience; Eurofins (HDAC4, 5, 7-11)
T15 sequence (Q9UIF8 whole entry): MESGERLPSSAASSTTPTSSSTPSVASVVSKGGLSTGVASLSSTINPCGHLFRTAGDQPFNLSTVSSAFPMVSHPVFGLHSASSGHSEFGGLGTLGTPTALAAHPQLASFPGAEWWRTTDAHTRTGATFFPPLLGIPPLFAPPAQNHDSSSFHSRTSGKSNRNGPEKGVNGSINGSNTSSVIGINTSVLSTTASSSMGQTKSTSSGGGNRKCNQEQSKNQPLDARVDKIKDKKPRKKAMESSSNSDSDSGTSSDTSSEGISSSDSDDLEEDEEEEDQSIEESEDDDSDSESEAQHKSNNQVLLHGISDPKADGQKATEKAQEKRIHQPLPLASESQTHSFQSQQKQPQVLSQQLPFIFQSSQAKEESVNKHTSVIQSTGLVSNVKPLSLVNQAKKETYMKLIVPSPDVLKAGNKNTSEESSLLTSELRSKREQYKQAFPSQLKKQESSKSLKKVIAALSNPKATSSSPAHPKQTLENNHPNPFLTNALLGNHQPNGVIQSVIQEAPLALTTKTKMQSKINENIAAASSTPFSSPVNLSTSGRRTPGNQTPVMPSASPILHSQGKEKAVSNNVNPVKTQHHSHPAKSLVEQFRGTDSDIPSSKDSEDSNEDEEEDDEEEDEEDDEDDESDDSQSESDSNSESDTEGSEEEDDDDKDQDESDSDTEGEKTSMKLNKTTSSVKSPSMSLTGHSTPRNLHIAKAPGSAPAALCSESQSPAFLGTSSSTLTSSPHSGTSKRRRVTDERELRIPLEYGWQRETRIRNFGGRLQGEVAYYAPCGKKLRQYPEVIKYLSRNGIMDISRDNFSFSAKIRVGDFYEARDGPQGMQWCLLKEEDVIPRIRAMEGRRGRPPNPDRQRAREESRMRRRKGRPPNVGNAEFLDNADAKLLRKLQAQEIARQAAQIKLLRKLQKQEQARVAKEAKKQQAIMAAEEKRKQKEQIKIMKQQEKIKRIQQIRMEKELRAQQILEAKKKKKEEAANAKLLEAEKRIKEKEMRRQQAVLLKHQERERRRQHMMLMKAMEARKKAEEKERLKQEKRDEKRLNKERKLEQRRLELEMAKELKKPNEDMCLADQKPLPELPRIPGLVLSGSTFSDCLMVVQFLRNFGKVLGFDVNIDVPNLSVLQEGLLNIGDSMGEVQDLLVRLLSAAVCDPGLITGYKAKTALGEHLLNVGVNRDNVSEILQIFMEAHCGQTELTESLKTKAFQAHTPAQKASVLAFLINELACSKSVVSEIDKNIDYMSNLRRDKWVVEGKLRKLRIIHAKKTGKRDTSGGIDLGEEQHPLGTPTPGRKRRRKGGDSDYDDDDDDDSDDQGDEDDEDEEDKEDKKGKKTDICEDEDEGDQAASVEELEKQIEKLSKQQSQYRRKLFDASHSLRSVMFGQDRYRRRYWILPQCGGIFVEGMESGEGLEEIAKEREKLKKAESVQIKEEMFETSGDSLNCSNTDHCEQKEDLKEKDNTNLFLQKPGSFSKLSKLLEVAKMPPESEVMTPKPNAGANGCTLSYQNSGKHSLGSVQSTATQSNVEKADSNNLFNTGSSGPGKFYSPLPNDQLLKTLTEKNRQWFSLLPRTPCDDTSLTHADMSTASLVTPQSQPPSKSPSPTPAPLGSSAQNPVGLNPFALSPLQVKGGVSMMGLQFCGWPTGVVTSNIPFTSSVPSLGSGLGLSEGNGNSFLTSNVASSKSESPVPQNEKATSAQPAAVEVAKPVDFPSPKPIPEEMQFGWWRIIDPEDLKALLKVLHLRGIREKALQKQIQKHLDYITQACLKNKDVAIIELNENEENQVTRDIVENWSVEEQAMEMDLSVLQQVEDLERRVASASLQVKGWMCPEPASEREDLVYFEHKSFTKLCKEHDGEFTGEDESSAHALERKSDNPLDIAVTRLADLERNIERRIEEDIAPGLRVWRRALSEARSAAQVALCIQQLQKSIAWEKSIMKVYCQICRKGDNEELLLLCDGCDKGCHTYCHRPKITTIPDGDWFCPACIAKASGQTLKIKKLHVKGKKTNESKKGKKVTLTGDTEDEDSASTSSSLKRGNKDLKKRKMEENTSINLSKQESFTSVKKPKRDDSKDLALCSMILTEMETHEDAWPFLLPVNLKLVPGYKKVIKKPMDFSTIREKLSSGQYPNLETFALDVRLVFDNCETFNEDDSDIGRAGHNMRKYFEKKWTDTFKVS
Excerpt: as §1

BRD2 (BD2) = biological target: T16, BRD2 (BD2) (Homo sapiens, UniProt P25440); experiment: Epigenetic panel (BPS Bioscience); format: binding
T16 construct: purchased BPS Bioscience; Eurofins (HDAC4, 5, 7-11)
T16 sequence (P25440 339-459 limits assumed): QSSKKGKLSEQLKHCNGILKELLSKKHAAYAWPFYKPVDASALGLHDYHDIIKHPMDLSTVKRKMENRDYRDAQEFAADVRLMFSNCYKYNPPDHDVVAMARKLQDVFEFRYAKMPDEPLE
Excerpt: as §1

BRD4 (BD1+BD2) = biological target: T17, BRD4 (BD1+BD2) (Homo sapiens, UniProt O60885); experiment: Epigenetic panel (BPS Bioscience); format: binding
T17 construct: purchased BPS Bioscience; Eurofins (HDAC4, 5, 7-11)
Excerpt: as §1

HDAC8 = biological target: T18, HDAC8 (Homo sapiens, UniProt Q9BY41); experiment: HDAC assay (Eurofins); format: biochemical
T18 construct: purchased Eurofins (contracted assay service)
T18 sequence (Q9BY41 1-377): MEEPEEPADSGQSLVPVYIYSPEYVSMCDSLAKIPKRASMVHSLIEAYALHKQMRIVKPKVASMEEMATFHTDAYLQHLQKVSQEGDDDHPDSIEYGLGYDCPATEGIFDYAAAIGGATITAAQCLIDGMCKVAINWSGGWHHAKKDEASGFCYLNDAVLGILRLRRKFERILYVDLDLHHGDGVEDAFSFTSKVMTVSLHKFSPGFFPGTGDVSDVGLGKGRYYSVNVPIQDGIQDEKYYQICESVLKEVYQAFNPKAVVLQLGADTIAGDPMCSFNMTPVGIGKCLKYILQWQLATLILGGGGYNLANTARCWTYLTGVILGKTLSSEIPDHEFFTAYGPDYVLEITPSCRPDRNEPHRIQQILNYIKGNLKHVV

HDAC9 = biological target: T19, HDAC9 (Homo sapiens, UniProt Q9UKV0); experiment: HDAC assay (Eurofins); format: biochemical
T19 construct: purchased Eurofins (contracted assay service)
T19 sequence (Q9UKV0 whole entry): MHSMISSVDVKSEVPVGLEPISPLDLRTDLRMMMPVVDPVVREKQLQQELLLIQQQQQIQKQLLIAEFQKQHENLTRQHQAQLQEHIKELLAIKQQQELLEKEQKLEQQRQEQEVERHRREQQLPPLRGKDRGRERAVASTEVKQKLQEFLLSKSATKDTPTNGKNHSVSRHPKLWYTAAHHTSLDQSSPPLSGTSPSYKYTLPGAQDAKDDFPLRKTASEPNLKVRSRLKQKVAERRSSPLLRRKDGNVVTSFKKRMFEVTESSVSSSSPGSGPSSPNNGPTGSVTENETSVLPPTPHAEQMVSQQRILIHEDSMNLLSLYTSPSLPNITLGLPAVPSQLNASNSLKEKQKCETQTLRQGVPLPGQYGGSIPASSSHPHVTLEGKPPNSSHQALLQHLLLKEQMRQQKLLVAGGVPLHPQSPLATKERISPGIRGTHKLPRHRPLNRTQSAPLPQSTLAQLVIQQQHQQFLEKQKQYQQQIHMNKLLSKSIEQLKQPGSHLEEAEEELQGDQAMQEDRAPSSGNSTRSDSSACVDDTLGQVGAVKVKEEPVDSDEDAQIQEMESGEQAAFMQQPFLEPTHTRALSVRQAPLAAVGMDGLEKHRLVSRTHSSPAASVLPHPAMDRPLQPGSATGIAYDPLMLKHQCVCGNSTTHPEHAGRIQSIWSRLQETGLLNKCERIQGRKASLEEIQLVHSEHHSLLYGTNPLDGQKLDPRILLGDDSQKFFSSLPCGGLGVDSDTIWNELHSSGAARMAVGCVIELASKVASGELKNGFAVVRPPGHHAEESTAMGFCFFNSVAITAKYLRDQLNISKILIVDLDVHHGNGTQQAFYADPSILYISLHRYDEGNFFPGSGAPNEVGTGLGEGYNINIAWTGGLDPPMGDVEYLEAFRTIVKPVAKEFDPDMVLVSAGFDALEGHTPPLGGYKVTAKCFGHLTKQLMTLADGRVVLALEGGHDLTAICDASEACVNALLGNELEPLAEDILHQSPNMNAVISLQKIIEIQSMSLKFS

COc1cc2nc(-c3cc(C)oc3C)cc(NCC3CCN(c4ncc(C(=O)NO)cn4)CC3)c2cc1OC [CM-1758, 2-[4-[[[2-(2,5-dimethyl-3-furyl)-6,7-dimethoxy-4-quinolyl]amino]methyl] -1-piperidyl]pyrimidine-5-carbohydroxamic acid]
Cell number (%) G1 (ML-2): 90.78% and 86.19% and 89.03% | Cell number (%) G2/M (ML-2): 6.71% and 3.95% and 9.23% | Cell number (%) S (ML-2): 5.26% and 4.58% and 4.26% | inhibition at 10 µM (BRDT (BD1)): 23% | inhibition at 10 µM (ATAD2B): 13% | inhibition at 10 µM (TAF1L (BD2)): 0% | inhibition at 10 µM (TAF1L (BD1+BD2)): 0% | inhibition at 10 µM (BRDT (BD1+BD2)): 17% | inhibition at 10 µM (BRD4 (BD2)): 0% | inhibition at 10 µM (SMARCA2A): 0% | inhibition at 10 µM (BRD3 (BD2)): 0% | inhibition at 10 µM (BRD2 (BD1)): 25% | IC50 (BRD3 (BD1)): > 50000 nM | inhibition at 10 µM (BRD3 (BD1)): 60% | inhibition at 10 µM (BPTF/FALZ): 0% | inhibition at 10 µM (TAF1 (BD2)): 0% | inhibition at 10 µM (BRPF3): 40% | inhibition at 10 µM (BRD4 (BD1)): 0% | inhibition at 10 µM (BAZ2B): 0% | inhibition at 10 µM (BRD2 (BD2)): 34% | inhibition at 10 µM (BRD4 (BD1+BD2)): 50% | IC50 (HDAC8): 200 nM | inhibition at 10 µM (HDAC8): 100% | IC50 (HDAC9): 92 nM | inhibition at 10 µM (HDAC9): 97%

COc1cc2nc(-c3ccc(C)o3)cc(NCC3CCN(c4ncc(C(=O)NO)cn4)CC3)c2cc1OC [CM-444, 2-[4-[[[6,7-dimethoxy-2-(5-methyl-2-furyl)-4-quinolyl]amino]methyl]-1-piperidyl]pyrimidine-5-carbohydroxamic acid]
Cell number (%) G1 (ML-2): 96.26% and 93.16% and 96.12% | Cell number (%) G2/M (ML-2): 0.0429% and 0.75% and 2.61% | Cell number (%) S (ML-2): 2.99% and 4.24% and 3.84% | inhibition at 10 µM (BRDT (BD1)): 44% | inhibition at 10 µM (ATAD2B): 0% | inhibition at 10 µM (TAF1L (BD2)): 0% | inhibition at 10 µM (TAF1L (BD1+BD2)): 0% | inhibition at 10 µM (BRDT (BD1+BD2)): 38% | inhibition at 10 µM (BRD4 (BD2)): 0% | inhibition at 10 µM (SMARCA2A): 0% | inhibition at 10 µM (BRD3 (BD2)): 0% | IC50 (BRD2 (BD1)): 30800 nM | inhibition at 10 µM (BRD2 (BD1)): 71% | inhibition at 10 µM (BRD3 (BD1)): 20% | inhibition at 10 µM (BPTF/FALZ): 0% | inhibition at 10 µM (TAF1 (BD2)): 0% | inhibition at 10 µM (BRPF3): 0% | inhibition at 10 µM (BRD4 (BD1)): 6% | inhibition at 10 µM (BAZ2B): 0% | inhibition at 10 µM (BRD2 (BD2)): 0% | inhibition at 10 µM (BRD4 (BD1+BD2)): 41% | IC50 (HDAC8): 83 nM | inhibition at 10 µM (HDAC8): 100% | IC50 (HDAC9): 90 nM | inhibition at 10 µM (HDAC9): 98%

— paper PMC11219871, “Epigenetic-based differentiation therapy for Acute Myeloid Leukemia” (Nature Communications, 2024)
